Results as given in patent publication US20250170122A1, “CERTAIN CHEMICAL ENTITIES, COMPOSITIONS AND METHODS” (Intellikine LLC, priority 2009, published 2025).
Entries after “also recorded” stand apart in the source; their conditions may differ.

Columns and labels:
[1] = tested on: p110δ or p110γ relative to p110α, p110β, DNAPK and/or mTor
Procedure: IC50 values are measured using either a standard TLC assay for lipid kinase activity (described below) or a high-throughput membrane capture assay. Kinase reactions are performed by preparing a reaction mixture containing kinase, inhibitor (2% DMSO final concentration), buffer (25 mM HEPES, pH 7.4, 10 mM MgCl2), and freshly sonicated phosphatidylinositol (100 μg/ml). Reactions are initiated by the addition of ATP containing 10 μCi of γ-32P-ATP to a final concentration 10 or 100 μM and allowed to proceed for 5 minutes at room temperature. For TLC analysis, reactions are then terminated by the addition of 105 μl 1N HCl followed by 160 μl CHCl3:MeOH (1:1). The biphasic mixture is vortexed, briefly centrifuged, and the organic phase is transferred to a new tube using a gel loading pipette tip precoated with CHCl3. This extract is spotted on TLC plates and developed for 3-4 hours in a 65:35 solution of n-propanol:1 M acetic acid. The TLC plates are then dried, exposed to a phosphorimager screen (Storm, Amersham), and quantitated.
Briefly, the assay is a time resolved FRET assay that indirectly measures PIP3 product formed by the activity of a PI3-K. The kinase reaction is performed in a microtitre plate (e.g., a 384 well microtitre plate). The total reaction volume is approximately 20 ul per well. In the first step, each well receives 2 ul of test compound in 20% dimethylsulphoxide resulting in a 2% DMSO final concentration. Next, approximately 14.5 ul of a kinase/PIP2 mixture (diluted in 1× reaction buffer) is added per well for a final concentration of 0.25-0.3 ug/ml kinase and 10 uM PIP2. […] To start the reaction, 3.5 ul of ATP (diluted in 1× reaction buffer) is added per well for a final concentration of 10 uM ATP. The plate is sealed and incubated for 1 hour at room temperature. The reaction is stopped by adding 5 ul of Stop Solution per well and then 5 ul of Detection Mix is added per well. The plate is sealed, incubated for 1 hour at room temperature, and then read on an appropriate plate reader. Data is analyzed and IC50s are generated using GraphPad Prism 5.
DNA-PK can be purchased from Promega and assayed using the DNA-PK Assay System (Promega) according to the manufacturer's instructions.
The cross-activity or lack thereof of one or more compounds of the present invention against mTor can be measured according to any procedures known in the art or methods disclosed below. The compounds described herein can be tested against recombinant mTOR (Invitrogen) in an assay containing 50 mM HEPES, pH 7.5, 1 mM EGTA, 10 mM MgCl2, 2.5 mM, 0.01% Tween, 10 μM ATP (2.5 μCi of μ-32P-ATP), and 3 μg/mL BSA. Rat recombinant PHAS-¼EBP1 (Calbiochem; 2 mg/mL) is used as a substrate. Reactions are terminated by spotting onto nitrocellulose, which is washed with 1 M NaCl/1% phosphoric acid (approximately 6 times, 5-10 minutes each). Sheets are dried and the transferred radioactivity quantitated by phosphorimaging.
Other kits or systems for assaying mTOR activity are commercially available. For instance, one can use Invitrogen's LanthaScreen™ Kinase assay to test the inhibitors of mTOR disclosed herein. This assay is a time resolved FRET platform that measures the phosphorylation of GFP labeled 4EBP1 by mTOR kinase. The kinase reaction is performed in a white 384 well microtitre plate. The total reaction volume is 20 ul per well and the reaction buffer composition is 50 mM HEPES pH7.5, 0.01% Polysorbate 20, 1 mM EGTA, 10 mM MnCl2, and 2 mM DTT.

[2] = tested on: collagen induced developing arthritis model; experiment: Rat developing type II collagen induced arthritis assay; assay type: in vivo; conditions: for increase in ankle diameter over time: dose not stated
Procedure: In order to study the effects of the compounds of the present invention on the autoimmune disease arthritis, a collagen induced developing arthritis model was used. Female Lewis rats were given collagen injections at day 0. Bovine type II collagen was prepared as a 4 mg/ml solution in 0.01 N acetic acid. Equal volumes of collagen and Freund's incomplete adjuvant were emulsified by hand mixing until a bead of the emulsified material held its form in water. Each rodent received a 300 μl injection of the mixture at each injection time spread over three subcutaneous sites on the back.
Oral compound administration began on day 0 and continued through day 16 with vehicle (5% NMP, 85% PEG 400, 10% Solutol) or compounds of the present invention in vehicle or control (e.g. methotrexate) at 12 hour intervals daily. Rats were weighed on days 0, 3, 6, 9-17 and caliper measurements of ankles taken on days 9-17. Final body weights were taken, and then the animals were euthanized on day 17. After euthanization, blood was drawn and hind paws and knees were removed. Blood was further processed for pharmacokinetics experiments as well as an anti-type II collagen antibody ELISA assay. Hind paws were weighed and then with the knees preserved in 10% formalin. The paws and knees were subsequently processed for microcopy. Livers, spleen and thymus were also weighed. Sciatic nerves were prepared for histopathology.
Knee and ankle joints were fixed for 1-2 days and decalcified for 4-5 days. Ankle joints were cut in half longitudinally, knees were cut in half along the frontal plane. Joints were then processed, embedded, sectioned and stained with toluidine blue. Scoring of the joints was done according to the following criteria:
Percent inhibition of paw weight and AUC was calculated using the following formula:
% Inhibition=A−B/A×100 • A=Mean Disease Control—Mean Normal • B=Mean Treated—Mean Normal

[3] = tested on: established type II collagen induced arthritis; experiment: Rat established type II collagen induced arthritis assay; assay type: in vivo; conditions: oral
Procedure: In order to examine the dose responsive efficacy of the compounds of the present invention in inhibiting the inflammation, cartilage destruction and bone resorption of 10 day established type II collagen induced arthritis in rats, compounds were administered orally daily or twice daily for 6 days.
Female Lewis rats were anesthetized and given collagen injections prepared and administered as described previously on day 0. On day 6, animals were anesthetized and given a second collagen injection. Caliper measurements of normal (pre-disease) right and left ankle joints were performed on day 9. On days 10-11, arthritis typically occurred and rats were randomized into treatment groups. Randomization was performed after ankle joint swelling was obviously established and there was good evidence of bilateral disease.
After an animal was selected for enrollment in the study, treatment was initiated by the oral route. Animals were given vehicle, control (Enbrel) or compound doses, twice daily or once daily (BID or QD respectively). Dosing was administered on days 1-6 using a volume of 2.5 ml/kg (BID) or 5 ml/kg (QD) for oral solutions. Rats were weighed on days 1-7 following establishment of arthritis and caliper measurements f ankles taken every day. Final body weights were taken on day 7 and animals were euthanized.

[4] = tested on: adjuvant induced arthritis model; experiment: Adjuvant induced arthritis assay; assay type: in vivo
Procedure: Isoflurane-anesthetized Lewis rats (200-250 g) were implanted with an intrathecal (IT) catheter. After a 6 d recovery period, all animals except those that appeared to have sensory or motor abnormalities (fewer than 5% of the total number) were used for experiments. For IT administration, 10 μl of drug or saline followed by 10 μl of isotonic saline was injected through the catheter.
Lewis rats were immunized at the base of the tail with 0.1 ml of complete Freund's adjuvant (CFA) on day 0 several days after catheter implantation (n=6/group). Drug (e.g. one or more compounds of the present invention or vehicle) treatment was generally started on day 8 and continued daily until day 20. Clinical signs of arthritis generally begin on day 10, and paw swelling was determined every second day by water displacement plethysmometry.

basophilic granulocytes = experiment: Basotest assay; assay type: cell-based; conditions: heparinized whole blood; dust mite or grass extract
Procedure: The baseotest assay is performed using Orpegen Pharma Basotest reagent kit. Heparinized whole blood is pre-incubated with test compound or solvent at 37° C. for 20 min. Blood is then incubated with assay kit stimulation buffer (to prime cells for response) followed by allergen (dust mite extract or grass extract) for 20 min. The degranulation process is stopped by incubating the blood samples on ice. The cells are then labeled with anti-IgE-PE to detect basophilic granulocytes, and anti-gp53-FITC to detect gp53 (a glycoprotein expressed on activated basophils). After staining red blood cells are lysed by addition of Lysing Solution. Cells are washed, and analyzed by flow cytometry.

[5] = tested on: LPS-induced lung inflammation model; experiment: LPS-induced lung inflammation assay; assay type: in vivo, rats; conditions: oral; bronchoalveolar lavage 6 h after intranasal LPS
Procedure: To perform the LPS-induced lung inflammation assay, compounds were dosed orally. A group was dosed with vehicle only and dexamethasone (5 mg/kg) was used in another group as positive control. Pulmonary inflammation was determined 6 h after intranasal instillation of LPS (10 μg). The following parameters were evaluated: total number of leukocytes and number of neutrophils in bronchoalveolar lavage (BAL).

[6] = tested on: OVA-induced allergic lung inflammation model; experiment: Ovalbumin-induced lung inflammation assay; assay type: in vivo, rats; conditions: oral; bronchoalveolar lavage after 4 daily ovalbumin challenges
Procedure: In the ovalbumin-induced lung inflammation assay, compounds were dosed orally. A group was dosed with vehicle only and dexamethasone (5 mg/kg) was used in another group as positive control. Pulmonary inflammation was determined 4 days after 4 consecutive daily intranasal instillation of ovalbumin. Compounds were given by gavage 30 min before each challenge (4 challenges) at the indicated doses. The following parameters were evaluated: Total number of leukocytes and number of eosinophils in bronchoalveolar lavage (BAL).

Compound	selectivity ratio [1]	other results
C[C@H](Nc1ncnc2[nH]cnc12)c1cc2ncccc2c(=O)n1-c1ccccc1 [Compound 357]	≥ 3	–
C[C@H](Nc1ncnc2[nH]cnc12)c1cc2cccc(Cl)c2c(=O)n1-c1ccc(F)cc1 [Compound 329]	≥ 3	–
Cc1cccc2cc([C@H](C)Nc3ncnc4[nH]cnc34)n(-c3ccccc3)c(=O)c12 [compound 196]	–	increase in ankle diameter over time [2]: reducing the increase in ankle diameter over time
Cc1ccccc1-n1c(Cn2nc(-c3cn[nH]c3)c3c(N)ncnc32)cc2cccc(Cl)c2c1=O [Compound 336]	≥ 3	–
[2H]c1nc2c(N[C@@H](C)c3cc4cccc(C)c4c(=O)n3-c3ccccc3)ncnc2[nH]1 [Compound 349]	≥ 3	–
Cc1cccc2cc([C@H](C)Nc3ncnc4[nH]cnc34)n(C3CC3)c(=O)c12 [compound 200, (S)-3-(1-(9H-purin-6-ylamino)ethyl)-2-cyclopropyl-8-methylisoquinolin-1(2H)-one]	–	increase in ankle diameter over time [2]: reducing the increase in ankle diameter over time
C[C@H](Nc1ncnc2[nH]cnc12)c1cc2cccc(F)c2c(=O)n1-c1ccc(F)cc1 [Compound 332]	≥ 3	–
C[C@H](Nc1ncnc2[nH]cnc12)c1cc2cccc(F)c2c(=O)n1-c1cccc(F)c1 [Compound 331]	≥ 3	–
Nc1ncnc2c1c(-c1cn[nH]c1)nn2Cc1cc2cccc(Cl)c2c(=O)n1-c1ccccc1 [Compound 338]	≥ 3	–
Cc1csc2ncnc(N[C@@H](C)c3cc4cccc(Cl)c4c(=O)n3-c3ccccc3)c12 [Compound 352]	≥ 3	–
C[C@H](Nc1ncnc2ccsc12)c1cc2cccc(Cl)c2c(=O)n1-c1ccccc1 [Compound 344]	≥ 3	–
C[C@H](Nc1nc(N)ncc1C(F)(F)F)c1cc2cccc(Cl)c2c(=O)n1-c1ccccc1 [Compound 346]	≥ 3	–
CNc1ncc(C(F)(F)F)c(N[C@@H](C)c2cc3cccc(Cl)c3c(=O)n2-c2ccccc2)n1 [Compound 354]	≥ 3	–
CC(=O)Nc1nc2ccc(-c3nn(Cc4cc5cccc(C)c5c(=O)n4-c4ccccc4C)c4ncnc(N)c34)cc2s1 [Compound 53]	–	ankle histopathology, all categories ([2]; 60 mg/kg): statistically significant reduction in all categories of ankle histopathology; serum anti-type II collagen levels ([2]; 10, 20, and 60 mg/kg dosage levels): reducing the level of anti-type II collagen antibodies; also recorded: significant reduction; mean ankle diameter increase over time ([2]; 10, 30, and 60 mg/kg at 12 hour intervals, oral, relative to vehicle or methotrexate control): significant reduction in arthritis induced ankle diameter increase over time; ankle histopathology (inflammation, pannus, cartilage damage, bone resorption) ([2]; developing arthritis, oral): improving ankle histopathology; also recorded: significant reduction in one or more categories; knee histopathology ([2]; developing arthritis, oral): dose dependent reduction in knee histopathology; mean ankle diameter increase over time ([3]; once daily dosage): significant reduction in mean ankle diameter increase over time; mean ankle diameter increase over time ([3]; twice daily dosage): significant reduction in mean ankle diameter increase over time; average paw volume increase ([4]; rat, in vivo): dose dependent reduction in the average paw volume increase; toxicity or other adverse reaction as measured by weight loss ([4]; rat, in vivo): does not exhibit toxicity or other adverse reaction; inhibition of allergen induced activation of basophilic granulocytes, active range (basophilic granulocytes): sub micromolar range
C[C@H](Nc1ncnc2[nH]c(Cl)nc12)c1cc2cccc(Cl)c2c(=O)n1-c1ccccc1 [Compound 333]	≥ 3	–
[2H]c1nc2c(N[C@@H](C)c3cc4cccc(Cl)c4c(=O)n3C3CC3)ncnc2[nH]1 [Compound 350]	≥ 3	–
C[C@H](Nc1ncnc2[nH]cnc12)c1cc2cccc(Cl)c2c(=O)n1-c1cccc(F)c1 [Compound 328]	≥ 3	–
C[C@H](Nc1ncnc2sccc12)c1cc2cccc(Cl)c2c(=O)n1-c1ccccc1 [Compound 343]	≥ 3	–
C[C@H](Nc1ncnc2[nH]cnc12)c1cc2cccc(Cl)c2c(=O)n1C1CC1 [compound 270, (S)-3-(1-(9H-purin-6-ylamino)ethyl)-2-cyclopropyl-8-chloro-isoquinolin-1(2H)-one]	–	increase in ankle diameter over time [2]: reducing the increase in ankle diameter over time
Nc1ncnc2c1c(-c1cn[nH]c1)nn2Cc1cc2cccc(Cl)c2c(=O)n1-c1ccccc1F [Compound 337]	≥ 3	–
Nc1ncnc2c1c(-c1cn[nH]c1)nn2Cc1cc2cccc(Cl)c2c(=O)n1-c1cccc(F)c1 [Compound 339]	≥ 3	–
C[C@H](Nc1ncnc2[nH]cnc12)c1cc2cccc(Cl)c2c(=O)n1-c1ccccc1 [compound 292, (S)-3-(1-(9H-purin-6-ylamino)ethyl)-8-chloro-2-phenylisoquinoline-1(2H)-one]	–	increase in ankle diameter over time [2]: reducing the increase in ankle diameter over time; increase in ankle diameter over time ([4]; dose not stated): reducing the increase in ankle diameter over time; LPS-induced total leukocyte neutrophil influx [5]: inhibiting LPS-induced total leukocyte neutrophil influx; eosinophil influx [6]: inhibiting eosinophil influx
C[C@H](Nc1ncnc2c1ncn2C)c1cc2cccc(Cl)c2c(=O)n1-c1ccccc1 [Compound 340]	≥ 3	–
C[C@H](Nc1ncnc2[nH]cnc12)c1cc2cccc(F)c2c(=O)n1-c1ccccc1 [Compound 330]	≥ 3	–
